In ChEMBL document CHEMBL6134907, “Synthesis of 5,9- and 5,8-Diaminoalkoxy Substituted Benzophenanthridinone Analogues as Tyrosyl-DNA Phosphodiesterase 1 Inhibitors and Their Radiosensitizing Activity” (J Med Chem, 2025):
Calls of active or inactive are those of the source. The calls are words filed in the database; no cut-off is given here.

Assays:
[1] = Acute toxicity in Kunming mouse assessed as survival at 150 to 600 mg/kg, ip single dose measured after 7 days; assay type: organism-based; conditions: in vivo, 168 h, dose 150-600 mg/kg, time 7 day
[2] = Tmax in male Sprague-Dawley rat at 1 mg/kg, iv measured up to 24 hrs by LCMS-MS analysis; assay type: ADME, organism-based; conditions: in vivo
[3] = Cmax in male Sprague-Dawley rat at 1 mg/kg, iv measured up to 24 hrs by LCMS-MS analysis; assay type: ADME, organism-based; conditions: in vivo
[4] = Half life in male Sprague-Dawley rat at 1 mg/kg, iv measured up to 24 hrs by LCMS-MS analysis; assay type: ADME, organism-based; conditions: in vivo
[5] = Tmax in male Sprague-Dawley rat at 5 mg/kg, IG measured up to 24 hrs by LCMS-MS analysis; assay type: ADME, organism-based; conditions: in vivo, po
[6] = AUClast in male Sprague-Dawley rat at 5 mg/kg, IG measured up to 24 hrs by LCMS-MS analysis; assay type: ADME, organism-based; conditions: in vivo, po
HCT-116 [7] = assay: Anti-tumor activity against human HCT-116 cells xenografted in BALB/c mouse assessed as tumor growth inhibition at 1 mg/kg, ip every day for 14 days; assay type: functional, organism-based; conditions: time 14.0 day
HCT-116 [8] = assay: Anti-tumor activity against human HCT-116 cells xenografted in BALB/c mouse assessed as tumor growth inhibition at 10 mg/kg, ip every day for 14 days; assay type: functional, organism-based; conditions: time 14.0 day
HCT-116 [9] = assay: In vivo radiosensitizing activity in human HCT-116 cells xenografted in BALB/c mouse assessed as sensitization of 1 GY ionizing radiation induced tumor growth inhibition at 1 mg/kg, ip every day for 14 days radiated for every 2 days once; assay type: functional, organism-based; conditions: time 14.0 day
HCT-116 [10] = assay: In vivo radiosensitizing activity in human HCT-116 cells xenografted in BALB/c mouse assessed as sensitization of 1 GY ionizing radiation induced reduction in tumor weight at 1 mg/kg, ip every day for 14 days radiated for every 2 days once (reference value: 35%); assay type: functional; parameters: scale not given: the % may be the effect or the level left; conditions: time 14 day
HCT-116 [11] = assay: In vivo radiosensitizing activity in human HCT-116 cells xenografted in BALB/c mouse assessed as sensitization of 1 GY ionizing radiation induced reduction in tumor weight at 10 mg/kg, ip every day for 14 days radiated for every 2 days once (reference value: 35%); assay type: functional; parameters: scale not given: the % may be the effect or the level left; conditions: time 14 day
[12] = Toxicity in BALB/c mouse xenografted with human HCT-116 cells assessed as change in body weight at 1 mg/kg, ip every day for 14 days; assay type: organism-based; conditions: in vivo, 336 h, time 14 day
[13] = Toxicity in BALB/c mouse xenografted with human HCT-116 cells assessed as change in body weight at 10 mg/kg, ip every day for 14 days; assay type: organism-based; conditions: in vivo, 336 h, time 14 day
[14] = Toxicity in BALB/c mouse xenografted with human HCT-116 cells assessed as change in heart weight at 1 to 10 mg/kg, ip every day for 14 days; assay type: organism-based; conditions: in vivo, 336 h, dose 1-10 mg/kg, time 14 day
[15] = Toxicity in BALB/c mouse xenografted with human HCT-116 cells assessed as change in liver weight at 1 to 10 mg/kg, ip every day for 14 days; assay type: organism-based; conditions: in vivo, 336 h, dose 1-10 mg/kg, time 14 day
[16] = Toxicity in BALB/c mouse xenografted with human HCT-116 cells assessed as change in liver weight at 1 to 10 mg/kg, ip every day for 14 days radiated for every 2 days once; assay type: organism-based; conditions: in vivo, 336 h, dose 1-10 mg/kg, time 14 day
[17] = target: Tyrosyl-DNA phosphodiesterase 1 (Homo sapiens, UniProt Q9NUW8); assay: Inhibition of TDP1 in human SgTDP1-HCT-116 cells (TDP1 knockout) at 1.11 mM; assay type: cell-based
HCT-116 [18] = assay: Reduction of XRCC4 expression in wild type human HCT-116 cells assessed as reduction in protein level at 5 to 10 uM measured after 24 hrs by Western blot analysis; assay type: functional, cell-based; conditions: dose 5-10 µM
HCT-116 [19] = assay: Reduction in recruitment of XRCC4 at damage site of human HCT-116 cells at 5 uM measured after 3 hrs by fluorescence colocalization assay; assay type: functional, cell-based
HCT-116 [20] = assay: Induction of ionizing radiation (IR) induced gamma-H2AX foci in human HCT-116 cells at 5 uM measured after 3 hrs by immunofluorescence assay; assay type: functional, cell-based
HCT-116 [21] = assay: Induction of PIG3 transcription level in human HCT-116 cells measured after 24 hrs; assay type: functional, cell-based
HCT-116 [22] = assay: Effect on ROS generation in human HCT-116 cells assessed as increase in intracellular ROS level at 5 to 10 uM measured after 20 mins by ELIASA analysis; assay type: functional, cell-based; conditions: dose 5-10 µM
HCT-116 [23] = assay: Induction of cell cycle arrest in human HCT-116 cells assessed as accumulation of cells at G0/G1 phase at 10 uM measured after 24 hrs by Propidium iodide (PI) staining based assay (reference value: 69.35%); assay type: functional
HCT-116 [24] = assay: Induction of cell cycle arrest in human HCT-116 cells assessed as accumulation of cells at S phase at 10 uM measured after 24 hrs by Propidium iodide (PI) staining based assay (reference value: 13.96%); assay type: functional
HCT-116 [25] = assay: Induction of cell cycle arrest in human HCT-116 cells assessed as accumulation of cells at G2/M phase at 10 uM measured after 24 hrs by Propidium iodide (PI) staining based assay (reference value: 15.77%); assay type: functional
[26] = Induction of 4GY ionizing radiation (IR) induced cell cycle arrest in human HCT-116 cells assessed as accumulation of cells at G0/G1 phase at 5 uM measured after 24 hrs by Propidium iodide (PI) staining based assay (reference value: 65.99%); assay type: functional
[27] = Induction of 4GY ionizing radiation (IR) induced cell cycle arrest in human HCT-116 cells assessed as accumulation of cells at S phase at 10 uM measured after 24 hrs by Propidium iodide (PI) staining based assay (reference value: 11.48%); assay type: functional
HCT-116 [28] = assay: Induction of apoptosis in human HCT-116 cells assessed as early apoptotic cells at 10 uM measured after 24 hrs by FITC Annexin V/PI apoptosis detection assay (reference value: 0.26%); assay type: functional
HCT-116 [29] = assay: Induction of apoptosis in human HCT-116 cells assessed as viable cells at 5 uM measured after 24 hrs by FITC Annexin V/PI apoptosis detection assay (reference value: 99.71%); assay type: functional; conditions: read-out: Activity
HCT-116 [30] = assay: Induction of apoptosis in human HCT-116 cells assessed as early apoptotic cells at 5 uM measured after 24 hrs by FITC Annexin V/PI apoptosis detection assay (reference value: 0.26%); assay type: functional
HCT-116 [31] = assay: Induction of apoptosis in human HCT-116 cells assessed as late apoptotic cells at 10 uM measured after 24 hrs by FITC Annexin V/PI apoptosis detection assay (reference value: 0%); assay type: functional
HCT-116 [32] = assay: Induction of 4GY ionizing radiation (IR) induced apoptosis in human HCT-116 cells assessed as late apoptotic cells at 5 uM measured after 24 hrs by FITC Annexin V/PI apoptosis detection assay (reference value: 14.32%); assay type: functional
HCT-116 [33] = assay: Induction of apoptosis in human HCT-116 cells assessed as induction of 4GY ionizing radiation (IR) induced cleaved PARP at 5 uM measured after 24 hrs by Western blot analysis; assay type: functional, cell-based
HCT-116 [34] = assay: Induction of apoptosis in human HCT-116 cells assessed as induction of 4GY ionizing radiation (IR) induced cleaved Caspase-9 at 5 uM measured after 24 hrs by Western blot analysis; assay type: functional, cell-based

Sequence of Tyrosyl-DNA phosphodiesterase 1 (Q9NUW8 whole entry): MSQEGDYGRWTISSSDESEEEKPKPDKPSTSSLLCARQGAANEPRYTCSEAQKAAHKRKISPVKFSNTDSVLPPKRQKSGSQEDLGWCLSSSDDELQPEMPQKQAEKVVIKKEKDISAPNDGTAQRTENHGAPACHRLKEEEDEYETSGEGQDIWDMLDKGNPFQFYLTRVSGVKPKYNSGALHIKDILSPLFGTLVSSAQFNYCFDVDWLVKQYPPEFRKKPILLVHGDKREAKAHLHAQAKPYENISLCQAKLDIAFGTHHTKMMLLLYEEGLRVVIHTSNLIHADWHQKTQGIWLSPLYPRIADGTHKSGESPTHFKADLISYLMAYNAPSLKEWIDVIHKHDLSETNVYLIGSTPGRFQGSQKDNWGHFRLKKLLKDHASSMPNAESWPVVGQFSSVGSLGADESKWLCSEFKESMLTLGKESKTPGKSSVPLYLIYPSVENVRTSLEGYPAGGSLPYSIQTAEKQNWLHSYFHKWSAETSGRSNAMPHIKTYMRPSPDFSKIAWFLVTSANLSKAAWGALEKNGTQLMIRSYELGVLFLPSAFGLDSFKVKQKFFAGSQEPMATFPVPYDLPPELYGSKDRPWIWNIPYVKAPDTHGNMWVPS

COc1cc2c(=O)n(CCN(C)C)c3c4cc5c(cc4ccc3c2cc1OCCN1CCOCC1)OCO5
Activity [1]: Non-toxic
Tmax [2]: 4.98 min
Cmax [3]: 221 ng/mL
half-life [4]: 172 min
Tmax [5]: 4 h
AUC(0-t) at 24 h [6]: 779 ng·h/mL
TGI (HCT-116 [7]): inactive
TGI (HCT-116 [8]): inactive
TGI (HCT-116 [9]): Active
Activity (HCT-116 [10]): 60%
Activity (HCT-116 [11]): 77%
Activity [12]: Non-toxic
Activity [13]: Non-toxic
Activity [14]: Non-toxic
Activity [15]: Non-toxic
Activity [16]: Non-toxic
inhibition [17]: inactive
Activity (HCT-116 [18]): Active
Activity (HCT-116 [19]): Active
Activity (HCT-116 [20]): Active
Activity (HCT-116 [21]): Dose-dependent-effect
Activity (HCT-116 [22]): inactive
Activity (HCT-116 [23]): 63.63%
Activity (HCT-116 [24]): 10.2%
Activity (HCT-116 [25]): 25.64%
Activity [26]: 44.18%
Activity [27]: 12.88%
Activity (HCT-116 [28]): 13.24%
viability at 5 µM (HCT-116 [29]): 78.2%
Activity (HCT-116 [30]): 14.89%
Activity (HCT-116 [31]): 13.67%
Activity (HCT-116 [32]): 18.62%
Activity (HCT-116 [33]): Active
Activity (HCT-116 [34]): Active
